These molecules were tested against T1, human ferroportin (Homo sapiens, UniProt Q9NP59) (assay: Biological in-vitro ferroportin internalization assay (luciferase reporter)). Details: average pEC50; stably-transfected CHO cell line expressing human ferroportin tagged to a luciferase reporter; 6 h incubation with test compound.
T1 construct: luciferase reporter (read with the Nano-Glo Luciferase Assay System); expressed in transfected cells; host or cells: CHO cells, stably transfected, expression induced with doxycycline
T1 sequence (Q9NP59 1-571): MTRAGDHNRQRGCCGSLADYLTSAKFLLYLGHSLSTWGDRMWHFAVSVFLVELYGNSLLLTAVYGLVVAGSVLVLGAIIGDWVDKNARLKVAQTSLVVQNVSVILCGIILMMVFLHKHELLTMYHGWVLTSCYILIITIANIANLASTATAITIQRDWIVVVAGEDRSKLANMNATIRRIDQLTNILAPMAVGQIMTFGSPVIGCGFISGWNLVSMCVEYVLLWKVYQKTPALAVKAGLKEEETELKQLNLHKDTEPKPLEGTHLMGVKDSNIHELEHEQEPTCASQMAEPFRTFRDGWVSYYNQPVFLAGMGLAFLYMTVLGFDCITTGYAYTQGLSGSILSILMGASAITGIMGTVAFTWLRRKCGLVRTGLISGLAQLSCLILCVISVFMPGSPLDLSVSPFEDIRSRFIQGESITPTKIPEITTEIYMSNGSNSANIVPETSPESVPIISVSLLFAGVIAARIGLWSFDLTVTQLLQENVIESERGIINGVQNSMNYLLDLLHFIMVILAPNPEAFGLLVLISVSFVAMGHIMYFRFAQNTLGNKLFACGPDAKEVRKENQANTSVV
Format: cell-based
Procedure: The protocol for this assay is generally as described in WO2018/128828, incorporated herein by reference in its entirety. Functional internalization of ferroportin protein was measured using a stably-transfected CHO cell line expressing the human ferroportin tagged to a luciferase reporter. Cells were plated for 24 h in the presence of ferric ammonium citrate (FAC). Ferroportin protein expression was induced with doxycycline for 24 h. The next day, the compounds were added. Test compounds were dissolved in DMSO. Cells were incubated with the test compounds for 6 h, and subsequently luciferase activity was measured using the Nano-Glo Luciferase Assay System and Glomax (Promega, Madison, Wis.). The average pEC50 was determined for the test compounds.
`COc1ccnc(-c2nc3c(c(N(C)CC(=O)NC4CCCCC4)n2)CCC3)c1` [Compound 137, N-cyclohexyl-2-{[2-(4-methoxypyridin-2-yl)-5H,6H,7H-cyclopenta[d]pyrimidin-4-yl](methyl)amino}acetamide] gave a pEC50 of 7.8.
Molecule `COc1ccc(NC(=O)[C@@H](C)N(C)c2nc(-c3cc(OCCO)ccn3)nc3c2CCC3)cn1` [Compound 309, (2R)-2-({2-[4-(2-hydroxyethoxy)pyridin-2-yl]-5H,6H,7H-cyclopenta[d]pyrimidin-4-yl}(methyl)amino)-N-(6-methoxypyridin-3-yl)propanamide] has a pEC50 of 8.1.
Work on `Cc1cccc(-c2nc3c(c(N(C)CC(=O)NC(C)(C)C)n2)CCC3)n1` [Compound 59, -tert-butyl-2-{methyl[2-(6-methylpyridin-2-yl)-5H,6H,7H-cyclopenta[d]pyrimidin-4-yl]amino}acetamide] yielded a pEC50 of 6.8.
Work on `COc1ccc(NC(=O)CN(C)c2nc(-c3cc(OC(F)(F)F)ccn3)nc3c2CCC3)cn1` [Compound 230, N-(6-methoxypyridin-3-yl)-2-[methyl({2-[4-(trifluoromethoxy)pyridin-2-yl]-5H,6H,7H-cyclopenta[d]pyrimidin-4-yl})amino]acetamide] yielded a pEC50 of 6.6.
`COc1ccc(NC(=O)CN(C)c2nc(-c3cc(OC4COC4)ccn3)nc3c2CCC3)cn1` [Compound 253, N-(6-methoxypyridin-3-yl)-2-[methyl({2-[4-(oxetan-3-yloxy)pyridin-2-yl]-5H,6H,7H-cyclopenta[d]pyrimidin-4-yl})amino]acetamide] showed a pEC50 of 7.6.
In the case of `CN(C)CCOc1ccnc(-c2cc(N(C)CC(=O)NC(C)(C)C)c3c(n2)CCC3)c1` [Compound 495, N-tert-butyl-2-[(2-{4-[2-(dimethylamino)ethoxy]pyridin-2-yl}-5H,6H,7H-cyclopenta[b]pyridin-4-yl)(methyl)amino]acetamide], the pEC50 is reported as 7.4.
Molecule `CC(C)NC(=O)CN(C)c1nc(-c2cc(OCC(C)(C)O)ccn2)nc2c1CCC2(C)C` [Compound 450, 2-({2-[4-(2-hydroxy-2-methylpropoxy)pyridin-2-yl]-7,7-dimethyl-5H,6H,7H-cyclopenta[d]pyrimidin-4-yl}(methyl)amino)-N-(propan-2-yl)acetamide] has a pEC50 of 6.4.
For `CN(CC(=O)NC(C)(C)C)c1nc(-c2cc(OC[C@@H]3COC(C)(C)O3)ccn2)nc2c1CCC2` [Compound 414, N-tert-butyl-2-{[2-(4-{[(4R)-2,2-dimethyl-1,3-dioxolan-4-yl]methoxy}pyridin-2-yl)-5H,6H,7H-cyclopenta[d]pyrimidin-4-yl](methyl)amino}acetamide], the pEC50 was 8.3.
In the case of `Cc1ccc(NC(=O)[C@@H](C)N(C)c2nc(-c3cc(OCCO)ccn3)nc3c2CCC3)cn1` [Compound 316, (2R)-2-({2-[4-(2-hydroxyethoxy)pyridin-2-yl]-5H,6H,7H-cyclopenta[d]pyrimidin-4-yl}(methyl)amino)-N-(6-methylpyridin-3-yl)propanamide], the pEC50 is reported as 7.8.
Molecule `COc1ccnc(-c2nc3c(c(N4CCCO[C@@H]5CCC[C@@H]54)n2)CCC3)c1` [Compound 54, 2-{4-[(5aS,8aR)-octahydro-2H-cyclopenta[b][1,4]oxazepin-5-yl]-5H,6H,7H-cyclopenta[d]pyrimidin-2-yl}-4-methoxypyridine] has a pEC50 of 6.9.
In the case of `CN(CC(=O)Nc1ccc(F)cc1)c1nc(-c2cc3cnn(C)c3cn2)nc2c1CCC2` [Compound 313, N-(4-fluorophenyl)-2-[methyl(2-{1-methyl-1H-pyrazolo[3,4-c]pyridin-5-yl}-5H,6H,7H-cyclopenta[d]pyrimidin-4-yl)amino]acetamide], the pEC50 is reported as 7.3.
Work on `CN(CC(=O)NC(C)(C)C)c1nc(-c2cc(OCC3COC3)ccn2)nc2c1CCC2` [Compound 211, N-tert-butyl-2-[methyl(2-{4-[(oxetan-3-yl)methoxy]pyridin-2-yl}-5H,6H,7H-cyclopenta[d]pyrimidin-4-yl)amino]acetamide] yielded a pEC50 of 7.9.
With `CN(CC(=O)Nc1ccc(F)nc1)c1nc(-c2cc3cn[nH]c3cn2)nc2c1CCC2` [Compound 266, N-(6-fluoropyridin-3-yl)-2-[methyl(2-{1H-pyrazolo[3,4-c]pyridin-5-yl}-5H,6H,7H-cyclopenta[d]pyrimidin-4-yl)amino]acetamide] the pEC50 was 7.3.
`Cc1cnc(-c2nc3c(c(N(C)CC(=O)NC(C)(C)C)n2)CCC3)cc1OCCO` [Compound 191, N-tert-butyl-2-({2-[4-(2-hydroxyethoxy)-5-methylpyridin-2-yl]-5H,6H,7H-cyclopenta[d]pyrimidin-4-yl}(methyl)amino)acetamide] showed a pEC50 of 7.
Molecule `CC(C)NC(=O)CN(C)c1nc(-c2cc(OCCN3CCCC3)ccn2)nc2c1CCC2` [Compound 429, 2-[methyl(2-{4-[2-(pyrrolidin-1-yl)ethoxy]pyridin-2-yl}-5H,6H,7H-cyclopenta[d]pyrimidin-4-yl)amino]-N-(propan-2-yl)acetamide] has a pEC50 of 8.
Work on `COc1cc(-c2nc3c(c(N(C)CC(=O)Nc4ccc(C)nc4)n2)CCC3)ncc1F` [Compound 306, 2-{[2-(5-fluoro-4-methoxypyridin-2-yl)-5H,6H,7H-cyclopenta[d]pyrimidin-4-yl](methyl)amino}-N-(6-methylpyridin-3-yl)acetamide] yielded a pEC50 of 6.6.
Molecule `CN(CC(=O)NC(C)(C)CO)c1nc(-c2ccccn2)nc2c1CCC2` [Compound 61, N-(1-hydroxy-2-methylpropan-2-yl)-2-{methyl[2-(pyridin-2-yl)-5H,6H,7H-cyclopenta[d]pyrimidin-4-yl]amino}acetamide] has a pEC50 of 7.1.
`COc1ccnc(-c2nc3c(c(N(C)CC(=O)N[C@@H]4CCCC[C@H]4O)n2)CCC3)c1` [Compound 141, N-[(1R,2R)-2-hydroxycyclohexyl]-2-{[2-(4-methoxypyridin-2-yl)-5H,6H,7H-cyclopenta[d]pyrimidin-4-yl](methyl)amino}acetamide] showed a pEC50 of 7.1.
Work on `CCC(O)(CC)COc1ccnc(-c2nc3c(c(N(C)CC(=O)NC)n2)CCC3)c1` [Compound 443, 2-({2-[4-(2-ethyl-2-hydroxybutoxy)pyridin-2-yl]-5H,6H,7H-cyclopenta[d]pyrimidin-4-yl}(methyl)amino)-N-methylacetamide] yielded a pEC50 of 7.8.
`CN(CC(=O)NC1(C)CCCC1)c1nc(-c2cn(C)cn2)nc2c1CCC2` [Compound 161, 2-{methyl[2-(1-methyl-1H-imidazol-4-yl)-5H,6H,7H-cyclopenta[d]pyrimidin-4-yl]amino}-N-(1-methylcyclopentyl)acetamide] showed a pEC50 of 7.4.
For `COCCOc1ccnc(-c2nc3c(c(N(C)CC(=O)Nc4ccc(OC)nc4)n2)CCC3)c1` [Compound 238, 2-({2-[4-(2-methoxyethoxy)pyridin-2-yl]-5H,6H,7H-cyclopenta[d]pyrimidin-4-yl}(methyl)amino)-N-(6-methoxypyridin-3-yl)acetamide], the pEC50 was 7.5.
With `CN(CC(=O)NC(C)(C)C)c1nc(-c2cc(OC[C@H](O)CF)ccn2)nc2c1CCC2` [Compound 452, N-tert-butyl-2-[(2-{4-[(2S)-3-fluoro-2-hydroxypropoxy]pyridin-2-yl}-5H,6H,7H-cyclopenta[d]pyrimidin-4-yl)(methyl)amino]acetamide] the pEC50 was 8.4.
`COc1cnc(-c2nc3c(c(N(C)CC(=O)NC(C)(C)C)n2)CCC3)cn1` [Compound 12, N-tert-butyl-2-{[2-(5-methoxypyrazin-2-yl)-5H,6H,7H-cyclopenta[d]pyrimidin-4-yl](methyl)amino}acetamide] was tested, and the pEC50 was 5.8.

Reference: patent US11746100B2 (GLOBAL BLOOD THERAPEUTICS, INC., priority 2020, dated 2023)
